# Assay: Antagonist activity at P2Y12 receptor in human platelet rich plasma assessed as inhibition of ADP-induced platelet aggregation by light transmission aggregometry
row,SMILES,IC50 [nM]
1,CCCCCOC(=O)N1CCN(C(=O)[C@H](CCC(=O)O)NC(=O)c2cc(NCC3CCNC3)nc(-c3ccccc3)n2)CC1 (stereo partly drawn) [(4S)-5-oxo-5-(4-(pentyloxycarbonyl)piperazin-1-yl)-4-(2-phenyl-6-(pyrrolidin-3-ylmethylamino)pyrimidine-4-carboxamido)pentanoic acid],2600
2,CCCCCOC(=O)N1CCN(C(=O)[C@H](CCC(=O)O)NC(=O)c2cc(N3CCC(N4CCOCC4)CC3)nc(-c3ccccc3)n2)CC1 [(S)-4-(6-(4-morpholinopiperidin-1-yl)-2-phenylpyrimidine-4-carboxamido)-5-oxo-5-(4-(pentyloxycarbonyl)piperazin-1-yl)pentanoic acid],780
3,CCCCCOC(=O)N1CCN(C(=O)[C@H](CCC(=O)O)NC(=O)c2nc(-c3ccccc3)cc(N3CCC(CN)CC3)n2)CC1 [(S)-4-(4-(4-(aminomethyl)piperidin-1-yl)-6-phenylpyrimidine-2-carboxamido)-5-oxo-5-(4-(pentyloxycarbonyl)piperazin-1-yl)pentanoic acid],770
4,CCCCOC(=O)N1CCN(C(=O)[C@H](CCC(=O)O)NC(=O)c2cc(OC(CC)C(=O)N(CC)CC)nc(-c3ccccc3)n2)CC1 (stereo partly drawn) [(4S)-5-(4-(butoxycarbonyl)piperazin-1-yl)-4-(6-(1-(diethylamino)-1-oxobutan-2-yloxy)-2-phenylpyrimidine-4-carboxamido)-5-oxopentanoic acid],49000
5,CCCCOC(=O)N1CCN(C(=O)[C@H](CCC(=O)O)NC(=O)c2cc(OCCN(CC)CC)nc(-c3ccccc3)n2)CC1 [(S)-5-(4-(butoxycarbonyl)piperazin-1-yl)-4-(6-(2-(diethylamino)ethoxy)-2-phenylpyrimidine-4-carboxamido)-5-oxopentanoic acid],3000
6,CCCCCOC(=O)N1CCN(C(=O)[C@H](CCC(=O)O)NC(=O)c2cc(SC(C)(C)C)nc(-c3ccccc3)n2)CC1 [(S)-4-(6-(tert-butylthio)-2-phenylpyrimidine-4-carboxamido)-5-oxo-5-(4-(pentyloxycarbonyl)piperazin-1-yl)pentanoic acid],> 10000
7,CCCCCOC(=O)N1CCN(C(=O)[C@H](CCC(=O)O)NC(=O)c2cc(SC3CCCCC3)nc(-c3ccccc3)n2)CC1 [(S)-4-(6-(cyclohexylthio)-2-phenylpyrimidine-4-carboxamido)-5-oxo-5-(4-(pentyloxycarbonyl)piperazin-1-yl)pentanoic acid],> 10000
8,CCCCCOC(=O)N1CCN(C(=O)[C@H](CCC(=O)O)NC(=O)c2nc(OCC3CCN(C)CC3)cc(-c3ccccc3)n2)CC1 [(S)-4-(4-((1-methylpiperidin-4-yl)methoxy)-6-phenylpyrimidine-2-carboxamido)-5-oxo-5-(4-(pentyloxycarbonyl)piperazin-1-yl)pentanoic acid],3800
9,CCCCCOC(=O)N1CCN(C(=O)[C@H](CCC(=O)O)NC(=O)c2cc(SCCO)nc(-c3ccccc3)n2)CC1 [(S)-4-(6-(2-hydroxyethylthio)-2-phenylpyrimidine-4-carboxamido)-5-oxo-5-(4-(pentyloxycarbonyl)piperazin-1-yl)pentanoic acid],> 10000
10,CCCCCOC(=O)N1CCN(C(=O)[C@H](CCC(=O)O)NC(=O)c2cc(N3CCC(COC)CC3)nc(-c3ccccc3)n2)CC1 [(S)-4-(6-(4-(methoxymethyl)piperidin-1-yl)-2-phenylpyrimidine-4-carboxamido)-5-oxo-5-(4-(pentyloxycarbonyl)piperazin-1-yl)pentanoic acid],2000
11,CCCCCOC(=O)N1CCN(C(=O)[C@H](CCC(=O)O)NC(=O)c2cc(OCCN(CC)CC)nc(-c3ccccc3)n2)CC1 [(S)-4-(6-(2-(diethylamino)ethoxy)-2-phenylpyrimidine-4-carboxamido)-5-oxo-5-(4-(pentyloxycarbonyl)piperazin-1-yl)pentanoic acid],15000
12,CCCCCOC(=O)N1CCN(C(=O)[C@H](CCC(=O)O)NC(=O)c2cc(OCC3CCN(C)CC3)nc(-c3ccccc3)n2)CC1 [(S)-4-(6-((1-methylpiperidin-4-yl)methoxy)-2-phenylpyrimidine-4-carboxamido)-5-oxo-5-(4-(pentyloxycarbonyl)piperazin-1-yl)pentanoic acid],3600
13,CCCCOC(=O)N1CCN(C(=O)[C@H](CCC(=O)O)NC(=O)c2cc(OCCOC)nc(-c3ccccc3)n2)CC1 [(S)-5-(4-(butoxycarbonyl)piperazin-1-yl)-4-(6-(2-methoxyethoxy)-2-phenylpyrimidine-4-carboxamido)-5-oxopentanoic acid],2600
14,CCCCCOC(=O)N1CCN(C(=O)[C@H](CCC(=O)O)NC(=O)c2cc(NCCOC)nc(-c3ccccc3)n2)CC1 [(S)-4-(6-(2-methoxyethylamino)-2-phenylpyrimidine-4-carboxamido)-5-oxo-5-(4-(pentyloxycarbonyl)piperazin-1-yl)pentanoic acid],2600
15,CCCCCOC(=O)N1CCN(C(=O)[C@H](CCC(=O)O)NC(=O)c2cc(N3CCC(C)CC3)nc(-c3ccccc3)n2)CC1 [(S)-4-(6-(4-methylpiperidin-1-yl)-2-phenylpyrimidine-4-carboxamido)-5-oxo-5-(4-(pentyloxycarbonyl)piperazin-1-yl)pentanoic acid],> 10000
16,CCCCCOC(=O)N1CCN(C(=O)[C@H](CCC(=O)O)NC(=O)c2cc(N3CCC(CC(=O)N(CC)CC)CC3)nc(-c3ccccc3)n2)CC1 [(S)-4-(6-(4-(2-(diethylamino)-2-oxoethyl)piperidin-1-yl)-2-phenylpyrimidine-4-carboxamido)-5-oxo-5-(4-(pentyloxycarbonyl)piperazin-1-yl)pentanoic acid],2600
17,CCCCCOC(=O)N1CCN(C(=O)[C@H](CCC(=O)O)NC(=O)c2nc(-c3ccccc3)cc(N3CCC(CNC)CC3)n2)CC1 [(S)-4-(4-(4-((methylamino)methyl)piperidin-1-yl)-6-phenylpyrimidine-2-carboxamido)-5-oxo-5-(4-(pentyloxycarbonyl)piperazin-1-yl)pentanoic acid],1300
18,CCCCCOC(=O)N1CCN(C(=O)[C@H](CCC(=O)O)NC(=O)c2nc(-c3ccccc3)cc(N3CCC(N4CCCC4)CC3)n2)CC1 [(S)-5-oxo-5-(4-(pentyloxycarbonyl)piperazin-1-yl)-4-(4-phenyl-6-(4-(pyrrolidin-1-yl)piperidin-1-yl)pyrimidine-2-carboxamido)pentanoic acid],2100
19,CCCCCOC(=O)N1CCN(C(=O)[C@H](CCC(=O)O)NC(=O)c2nc(-c3ccccc3)cc(N3CCN(C)CC3)n2)CC1 [(S)-4-(4-(4-methylpiperazin-1-yl)-6-phenylpyrimidine-2-carboxamido)-5-oxo-5-(4-(pentyloxycarbonyl)piperazin-1-yl)pentanoic acid],8100
20,CCCCCOC(=O)N1CCN(C(=O)[C@H](CCC(=O)O)NC(=O)c2nc(-c3ccccc3)cc(N3CCC(OCCOC)CC3)n2)CC1 [(S)-4-(4-(4-(2-methoxyethoxy)piperidin-1-yl)-6-phenylpyrimidine-2-carboxamido)-5-oxo-5-(4-(pentyloxycarbonyl)piperazin-1-yl)pentanoic acid],5300
21,CCCCCOC(=O)N1CCN(C(=O)[C@H](CCC(=O)O)NC(=O)c2cc(N3CCC(CNCC)CC3)nc(-c3ccccc3)n2)CC1 [(S)-4-(6-(4-((ethylamino)methyl)piperidin-1-yl)-2-phenylpyrimidine-4-carboxamido)-5-oxo-5-(4-(pentyloxycarbonyl)piperazin-1-yl)pentanoic acid],770
